Measured values reported in ChEMBL document CHEMBL5113403, “Design, synthesis, and biological evaluation of novel pyrazolo [3,4-d]pyrimidine derivatives as potent PLK4 inhibitors for the treatment of TRIM37-amplified breast cancer” (Eur J Med Chem, 2022).
Values belong to the molecule of their own block, whether it stands above or below them.

Legend:
[1] = target: T1, Serine/threonine-protein kinase PLK4 (Homo sapiens, UniProt O00444); assay: Inhibition of recombinant human PLK4 incubated for 60 mins by Lanthascreen Eu kinase binding assay
T1 sequence (O00444 whole entry): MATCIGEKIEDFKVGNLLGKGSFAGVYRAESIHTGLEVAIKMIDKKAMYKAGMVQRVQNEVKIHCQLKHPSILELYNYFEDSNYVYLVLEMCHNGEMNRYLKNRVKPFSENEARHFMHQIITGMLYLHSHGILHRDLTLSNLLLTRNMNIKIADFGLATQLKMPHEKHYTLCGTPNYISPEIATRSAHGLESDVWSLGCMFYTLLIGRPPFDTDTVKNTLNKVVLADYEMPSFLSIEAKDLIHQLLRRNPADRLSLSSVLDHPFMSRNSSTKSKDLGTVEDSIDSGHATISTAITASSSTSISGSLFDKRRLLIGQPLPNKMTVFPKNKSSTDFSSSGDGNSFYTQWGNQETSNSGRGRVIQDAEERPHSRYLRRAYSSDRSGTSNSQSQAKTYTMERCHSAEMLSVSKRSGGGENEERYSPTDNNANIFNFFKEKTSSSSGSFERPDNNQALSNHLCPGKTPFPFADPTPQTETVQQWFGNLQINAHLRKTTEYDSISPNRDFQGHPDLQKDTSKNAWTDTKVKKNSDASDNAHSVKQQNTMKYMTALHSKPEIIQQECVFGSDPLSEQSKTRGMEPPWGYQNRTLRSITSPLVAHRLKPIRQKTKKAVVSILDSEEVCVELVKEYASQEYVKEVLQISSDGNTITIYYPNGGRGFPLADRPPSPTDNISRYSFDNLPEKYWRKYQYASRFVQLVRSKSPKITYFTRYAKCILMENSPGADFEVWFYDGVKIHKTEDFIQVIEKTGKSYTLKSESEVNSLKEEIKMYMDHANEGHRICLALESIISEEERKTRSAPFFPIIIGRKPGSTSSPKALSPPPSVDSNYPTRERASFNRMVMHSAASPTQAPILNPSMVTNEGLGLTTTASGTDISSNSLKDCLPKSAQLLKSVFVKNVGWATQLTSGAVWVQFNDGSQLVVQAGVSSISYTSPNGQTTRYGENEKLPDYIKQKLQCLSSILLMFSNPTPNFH

[2] = target: T2, Serine/threonine-protein kinase PAK 4 (Homo sapiens, UniProt O96013); assay: Inhibition of PAK4 (unknown origin) incubated for 60 mins by time-resolved HTRF assay
MCF7 = assay: Antiproliferative activity against human MCF7 cells assessed as cell growth inhibition incubated for 5 days by MTT assay; format: functional, cell-based; details: MCF7, 120 h
MDA-MB-231 = assay: Antiproliferative activity against human MDA-MB-231 cells assessed as cell growth inhibition incubated for 5 days by MTT assay; format: functional, cell-based; details: MDA-MB-231, 120 h
BT-474 = assay: Antiproliferative activity against human BT-474 cells assessed as cell growth inhibition incubated for 5 days by MTT assay; format: functional, cell-based; details: BT-474, 120 h
[3] = target: T1, Serine/threonine-protein kinase PLK4; assay: Inhibition of PLK4 (unknown origin)
[4] = target: T3, Serine/threonine-protein kinase PLK4 (Homo sapiens) (UniProt O00444); assay: Inhibition of PLK4 (unknown origin) at 2 uM relative to control
T3 sequence (whole entry): T1 sequence (O00444 whole entry)

[5] = target: T2, Serine/threonine-protein kinase PAK 4; assay: Inhibition of PAK4 (unknown origin) using S2 as substrate incubated for 60 mins in the presence of ATP by time-resolved HTRF assay
CYP2C9 = CYP2C9 (Homo sapiens, UniProt P11712); assay: Inhibition of CYP2C9 in human liver microsomes at 10 uM preincubated for 10 mins followed by addition of NADPH-regenerating system and measured after 15 mins by LC-MS/MS analysis relative to control; format: ADME, Microsome; details: time 25 min
CYP2D6 = CYP2D6 (Homo sapiens, UniProt P10635); assay: Inhibition of CYP2D6 in human liver microsomes at 10 uM preincubated for 10 mins followed by addition of NADPH-regenerating system and measured after 15 mins by LC-MS/MS analysis relative to control; format: ADME, Microsome; details: time 25 min
CYP2D6, sequence (P10635 whole entry): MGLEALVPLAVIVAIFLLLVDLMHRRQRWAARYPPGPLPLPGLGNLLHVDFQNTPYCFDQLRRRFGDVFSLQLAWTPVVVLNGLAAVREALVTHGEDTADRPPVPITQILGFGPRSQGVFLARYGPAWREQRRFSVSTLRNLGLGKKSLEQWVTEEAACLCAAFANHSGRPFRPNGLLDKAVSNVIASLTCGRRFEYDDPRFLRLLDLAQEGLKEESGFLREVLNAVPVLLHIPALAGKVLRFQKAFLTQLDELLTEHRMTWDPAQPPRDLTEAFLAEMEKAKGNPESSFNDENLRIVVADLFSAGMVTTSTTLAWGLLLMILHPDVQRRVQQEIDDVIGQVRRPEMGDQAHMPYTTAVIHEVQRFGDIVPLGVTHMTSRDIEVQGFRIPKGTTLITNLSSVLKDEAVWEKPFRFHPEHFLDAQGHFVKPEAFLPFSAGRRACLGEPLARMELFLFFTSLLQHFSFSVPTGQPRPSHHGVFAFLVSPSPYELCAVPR

T2 sequence (O96013 whole entry): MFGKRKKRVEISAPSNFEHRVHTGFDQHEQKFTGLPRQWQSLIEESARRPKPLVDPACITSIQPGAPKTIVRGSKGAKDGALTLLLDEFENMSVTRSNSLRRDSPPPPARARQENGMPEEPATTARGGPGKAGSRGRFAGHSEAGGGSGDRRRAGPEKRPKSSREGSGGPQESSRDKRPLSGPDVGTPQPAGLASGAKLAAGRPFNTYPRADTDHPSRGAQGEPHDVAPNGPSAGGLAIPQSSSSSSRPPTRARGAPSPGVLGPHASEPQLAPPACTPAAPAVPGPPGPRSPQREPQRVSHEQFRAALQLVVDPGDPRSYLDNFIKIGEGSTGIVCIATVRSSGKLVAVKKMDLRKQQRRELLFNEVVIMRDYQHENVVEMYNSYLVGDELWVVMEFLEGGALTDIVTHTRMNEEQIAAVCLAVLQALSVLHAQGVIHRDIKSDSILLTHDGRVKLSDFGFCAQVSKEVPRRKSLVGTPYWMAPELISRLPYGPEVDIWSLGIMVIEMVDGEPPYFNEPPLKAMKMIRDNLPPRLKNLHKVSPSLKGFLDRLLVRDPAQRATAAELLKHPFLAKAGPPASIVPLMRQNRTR
CYP2C9, sequence (P11712 whole entry): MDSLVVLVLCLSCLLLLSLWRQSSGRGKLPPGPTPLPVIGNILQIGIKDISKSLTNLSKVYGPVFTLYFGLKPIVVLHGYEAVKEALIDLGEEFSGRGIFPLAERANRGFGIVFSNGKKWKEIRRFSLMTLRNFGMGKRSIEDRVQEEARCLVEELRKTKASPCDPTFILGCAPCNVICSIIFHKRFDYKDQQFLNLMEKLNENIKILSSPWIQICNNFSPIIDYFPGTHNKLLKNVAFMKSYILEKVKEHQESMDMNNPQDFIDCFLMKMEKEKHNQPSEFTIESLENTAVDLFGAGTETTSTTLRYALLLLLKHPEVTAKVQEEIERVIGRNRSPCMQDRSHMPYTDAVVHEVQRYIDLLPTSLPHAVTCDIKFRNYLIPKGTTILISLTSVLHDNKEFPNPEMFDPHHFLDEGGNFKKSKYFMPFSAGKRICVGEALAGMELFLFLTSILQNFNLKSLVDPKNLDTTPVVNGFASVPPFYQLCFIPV

SMILES: Cc1cc(Nc2nc(NCc3cccc(F)c3)nc3[nH]ncc23)n[nH]1
IC50 [1]: 14.6 nM
IC50 [2]: 458 nM

IC50 [1]: 0.7 nM
IC50 [2]: 231 nM
IC50 (MCF7): 410 nM
IC50 (MDA-MB-231): 1080 nM
IC50 (BT-474): 2970 nM
SMILES: Cc1cc(Nc2nc(NCc3ccc(F)cc3F)nc3c2cnn3C2CCNCC2)n[nH]1

SMILES: Cc1cc(Nc2nc(NCc3ccccc3F)nc3[nH]ncc23)n[nH]1
IC50 [1]: 1 nM
IC50 [2]: 389 nM
IC50 (MCF7): 2310 nM
IC50 (MDA-MB-231): 9850 nM
IC50 (BT-474): 13200 nM

SMILES: Cc1cc(Nc2nc(NCc3ccc(F)cc3F)nc3c2cnn3CC(C)(C)O)n[nH]1
IC50 [1]: 2.7 nM
IC50 [2]: 655 nM
IC50 (MCF7): 160 nM
IC50 (MDA-MB-231): 2510 nM
IC50 (BT-474): 19400 nM

SMILES: Fc1ccc(CNc2nc(Nc3cc(C4CC4)[nH]n3)c3cnn(C4CCOCC4)c3n2)c(F)c1
IC50 [1]: 1.8 nM
IC50 (MCF7): 2480 nM
IC50 (MDA-MB-231): 2560 nM
IC50 (BT-474): 7240 nM

SMILES: Cc1cc(Nc2nc(NCc3ccc(Cl)cc3)nc3c2cnn3-c2ccc(F)cc2)n[nH]1
IC50 [1]: 241 nM

SMILES: Cc1cc(Nc2nc(NCc3ccc(F)cc3F)nc3c2cnn3C)n[nH]1
IC50 [1]: 17.5 nM

IC50 [3]: 351 nM
inhibition [4]: 58.4%
IC50 [5]: 5.9 nM
SMILES: Cc1cc(Nc2cc(Cc3ccccc3)nc(NC3CCNCC3)n2)n[nH]1

SMILES: Cc1cc(Nc2nc(NCc3ccc(F)c(F)c3)nc3[nH]ncc23)n[nH]1
IC50 [1]: 22.2 nM

SMILES: Cc1cc(Nc2nc(NCc3ccc(Cl)cc3)nc3c2cnn3C2CCCCC2)n[nH]1
IC50 [1]: 47.9 nM

SMILES: Cc1cc(Nc2nc(NCc3ccc(Cl)cc3)nc3c2cnn3C(C)C)n[nH]1
IC50 [1]: 3.7 nM
IC50 (MCF7): 2040 nM
IC50 (MDA-MB-231): 4860 nM
IC50 (BT-474): 13000 nM

SMILES: Fc1ccc(CNc2nc(Nc3n[nH]c4ccccc34)c3cnn(C4CCOCC4)c3n2)c(F)c1
IC50 [1]: 536 nM

SMILES: Cc1cc(Nc2nc(NCc3ccc(Cl)cc3)nc3c2cnn3CC(C)(C)O)n[nH]1
IC50 [1]: 3.8 nM
IC50 (MCF7): 1940 nM
IC50 (MDA-MB-231): 3980 nM
IC50 (BT-474): 16200 nM

SMILES: Cc1cc(Nc2nc(NCc3ccc(C#N)cc3)nc3[nH]ncc23)n[nH]1
IC50 [1]: 10.5 nM
IC50 (MCF7): 6060 nM
IC50 (MDA-MB-231): 1360 nM
IC50 (BT-474): 12100 nM

SMILES: Cc1cc(Nc2nc(NCc3ccc(Cl)cc3)nc3[nH]ncc23)n[nH]1
IC50 [1]: 0.3 nM
IC50 [2]: 515 nM
IC50 (MCF7): 860 nM
IC50 (MDA-MB-231): 7500 nM
IC50 (BT-474): 11700 nM

SMILES: Cc1cc(Nc2nc(NCc3cccc(Br)c3)nc3[nH]ncc23)n[nH]1
IC50 [1]: 23.3 nM
IC50 [2]: 4340 nM

IC50 [1]: 484 nM
IC50 [2]: 273 nM
SMILES: Cc1cc(Nc2nc(NC3CCNCC3)nc3[nH]ncc23)n[nH]1

SMILES: CC(C)(C)c1cc(Nc2nc(NCc3ccc(F)cc3F)nc3c2cnn3C2CCOCC2)n[nH]1
IC50 [1]: 726 nM

SMILES: Cc1cc(Nc2nc(Cl)nc3[nH]ncc23)n[nH]1
IC50 [1]: 489 nM
IC50 [2]: 5940 nM

inhibition at 0.25 h, 10 µM (CYP2C9): 81.4%
SMILES: Nc1ccc(S(=O)(=O)Nc2ccnn2-c2ccccc2)cc1 [SULFAPHENAZOLE]

IC50 [1]: 533 nM
IC50 [2]: 1500 nM
SMILES: Cc1cc(Nc2nc(N3CCNCC3)nc3[nH]ncc23)n[nH]1

SMILES: Cc1cc(Nc2nc(NCc3cccc(Cl)c3)nc3[nH]ncc23)n[nH]1
IC50 [1]: 5.5 nM
IC50 [2]: 611 nM
IC50 (MCF7): 5620 nM
IC50 (MDA-MB-231): 6860 nM
IC50 (BT-474): 12800 nM

IC50 (MCF7): 2270 nM
IC50 (MDA-MB-231): 8690 nM
IC50 (BT-474): 10500 nM
SMILES: COc1c(Nc2cc(C)[nH]n2)nc(Sc2ccc(S(=O)(=O)Cc3cccc([N+](=O)[O-])c3F)cc2F)nc1N1CCOCC1

SMILES: Cc1cnc(Nc2nc(NCc3ccc(F)cc3F)nc3c2cnn3C2CCOCC2)s1
IC50 [1]: 20.7 nM

SMILES: Fc1ccc(CNc2nc(Nc3cc(-c4ccccc4)[nH]n3)c3cnn(C4CCOCC4)c3n2)c(F)c1
IC50 [1]: 969 nM

SMILES: Cc1cc(Nc2nc(NCc3ccccc3Cl)nc3[nH]ncc23)n[nH]1
IC50 [1]: 0.7 nM
IC50 [2]: 668 nM
IC50 (MCF7): 4130 nM
IC50 (MDA-MB-231): 4210 nM
IC50 (BT-474): 7160 nM

SMILES: Cc1cc(Nc2nc(NCc3ccc(Cl)cc3)nc3c2cnn3C)n[nH]1
IC50 [1]: 20.2 nM

SMILES: Cc1cc(Nc2nc(NCc3c(F)cc(F)cc3F)nc3[nH]ncc23)n[nH]1
IC50 [1]: 78.5 nM

IC50 [1]: 454 nM
IC50 [2]: 1050 nM
SMILES: Cc1cc(Nc2nc(NC3CCNC3)nc3[nH]ncc23)n[nH]1 (configuration not stated)

SMILES: Fc1ccc(-c2cc(Nc3nc(NCc4ccc(F)cc4F)nc4c3cnn4C3CCOCC3)n[nH]2)cc1
IC50 [1]: 1290 nM

SMILES: Cc1cc(Nc2nc(NCc3ccccc3Br)nc3[nH]ncc23)n[nH]1
IC50 [1]: 8.7 nM
IC50 [2]: 1090 nM
IC50 (MCF7): 14100 nM
IC50 (MDA-MB-231): 3990 nM
IC50 (BT-474): 10100 nM

IC50 [1]: 206 nM
IC50 [2]: 5900 nM
SMILES: Cc1cc(Nc2nc(Nc3ccccc3)nc3[nH]ncc23)n[nH]1

SMILES: Cc1cc(Nc2nc(NCc3ccc(Cl)cc3)nc3c2cnn3C2CCOCC2)n[nH]1
IC50 [1]: 4 nM
IC50 (MCF7): 1550 nM
IC50 (MDA-MB-231): 9420 nM
IC50 (BT-474): 18300 nM

SMILES: Cc1cc(Nc2nc(NCc3ccc(Cl)cc3)nc3c2cnn3CC(F)(F)F)n[nH]1
IC50 [1]: 118 nM

SMILES: Cc1cc(Nc2nc(NCc3ccc(F)cc3F)nc3c2cnn3C(C)C)n[nH]1
IC50 [1]: 1.1 nM
IC50 (MCF7): 4320 nM
IC50 (MDA-MB-231): 5350 nM
IC50 (BT-474): 17300 nM

SMILES: Fc1ccc(CNc2nc(Nc3n[nH]c4ccc(Cl)cc34)c3cnn(C4CCOCC4)c3n2)c(F)c1
IC50 [1]: 3180 nM

SMILES: Cc1cc(Nc2nc(NCc3ccccc3)nc3[nH]ncc23)n[nH]1
IC50 [1]: 21.2 nM
IC50 [2]: 1960 nM

SMILES: Cc1cc(Nc2nc(NCc3ccc(F)cc3)nc3[nH]ncc23)n[nH]1
IC50 [1]: 0.8 nM
IC50 [2]: 395 nM
IC50 (MCF7): 970 nM
IC50 (MDA-MB-231): 8410 nM
IC50 (BT-474): 8750 nM

SMILES: Cc1cc(Nc2nc(NCc3ccc(F)cc3F)nc3[nH]ncc23)n[nH]1
IC50 [1]: 0.1 nM
IC50 [2]: 96.1 nM
IC50 (MCF7): 670 nM
IC50 (MDA-MB-231): 2670 nM
IC50 (BT-474): 3220 nM

inhibition at 0.25 h, 10 µM (CYP2D6): 95.9%
SMILES: C=C[C@H]1C[N@@]2CC[C@H]1C[C@@H]2[C@@H](O)c1ccnc2ccc(OC)cc12 [QUINIDINE]

SMILES: COc1ccc(CNc2nc(Nc3cc(C)[nH]n3)c3cn[nH]c3n2)cc1
IC50 [1]: 6.5 nM
IC50 (MCF7): 3320 nM
IC50 (MDA-MB-231): 1320 nM
IC50 (BT-474): 8230 nM

SMILES: CCc1cc(Nc2nc(NCc3ccc(F)cc3F)nc3c2cnn3C2CCOCC2)n[nH]1
IC50 [1]: 0.7 nM
IC50 (MCF7): 1790 nM
IC50 (MDA-MB-231): 2790 nM
IC50 (BT-474): 3060 nM

IC50 [1]: 7 nM
IC50 (MCF7): 790 nM
IC50 (MDA-MB-231): 3220 nM
IC50 (BT-474): 2350 nM
SMILES: Cc1cc(Nc2nc(NCc3ccc(Cl)cc3)nc3c2cnn3C2CCNCC2)n[nH]1

SMILES: Cc1cc(Nc2nc(NCc3ccc(Br)cc3)nc3[nH]ncc23)n[nH]1
IC50 [1]: 5.6 nM
IC50 [2]: 1320 nM
IC50 (MCF7): 5340 nM
IC50 (MDA-MB-231): 1860 nM
IC50 (BT-474): 4110 nM

SMILES: Cc1cc(Nc2nc(NCc3ccc(F)cc3F)nc3c2cnn3C2CCCCC2)n[nH]1
IC50 [1]: 7.9 nM
IC50 (MCF7): 810 nM
IC50 (MDA-MB-231): 2960 nM
IC50 (BT-474): 6230 nM
